# Experiments:
# [1] = tested on: blackgrass; assay: Test C preemergence; assay type: in vivo, Alopecurus myosuroides; settings: preemergence, 0 to 100 scale (0 no effect, 100 complete control)
# Outline: (§1)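 Seeds sown in loam soil–sand blend received a directed preemergence soil spray of test chemical in non-phytotoxic solvent with surfactant; postemergence plants (2–10 cm, one- to two-leaf stage) were sprayed with the same formulation. Greenhouse-held 10 days, then visually rated for injury versus untreated controls, 0 (no effect) to 100 (complete control).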
# [2] = tested on: corn; assay: Test C preemergence; assay type: in vivo, Zea mays; settings: preemergence, 0 to 100 scale (0 no effect, 100 complete control)
# Outline: as §1
# [3] = tested on: foxtail, giant; assay: Test C preemergence; assay type: in vivo, Setaria faberi; settings: preemergence, 0 to 100 scale (0 no effect, 100 complete control)
# Outline: as §1
# [4] = tested on: goosegrass; assay: Test C preemergence; assay type: in vivo, Eleusine indica; settings: preemergence, 0 to 100 scale (0 no effect, 100 complete control)
# Text: (§2) Seeds of plant species selected from barnyardgrass (Echinochloa crusgalli), blackgrass (Alopecurus myosuroides), corn (Zea mays), foxtail, giant (giant foxtail, Setaria faberi), green foxtail (Setaria viridis), goosegrass (Eleusine indica), kochia (Bassia scoparia), oat, wild (wild oat, Avena fatua), pigweed, palmer (palmer amaranth, palmer pigweed, Amaranthus palmeri), Pigweed, Redroot (redroot pigweed, Amaranthus retroflexus), ragweed (common ragweed, Ambrosia artemisiifolia), ryegrass, Italian ([…] ryegrass, Lolium multiflorum), soybean (Glycine max), and wheat (Triticum aestivum) were planted into a blend of loam soil and sand and treated preemergence with a directed soil spray using test chemicals formulated in a non-phytotoxic solvent mixture which included a surfactant. At the same time, plants selected from these crops and weed species and also galium (catchweed bedstraw, Galium aparine) and horseweed (Erigeron canadensis) were planted in pots containing the same blend of loam soil and sand and treated with postemergence applications of test chemicals formulated in the same manner. Plants ranged in height from 2 to 10 cm and were in the one- to two-leaf stage for the postemergence treatment. Treated plants and untreated controls were maintained in a greenhouse for 10 days, after which time all treated plants were compared to untreated controls and visually evaluated for injury. Plant response ratings, summarized in Table C, are based on a 0 to 100 scale where 0 is no effect and 100 is complete control. A dash (-) response means no test result.
# [5] = tested on: kochia; assay: Test C preemergence; assay type: in vivo, Bassia scoparia; settings: preemergence, 0 to 100 scale (0 no effect, 100 complete control)
# Outline: as §1
# [6] = tested on: oat, wild; assay: Test C preemergence; assay type: in vivo, Avena fatua; settings: preemergence, 0 to 100 scale (0 no effect, 100 complete control)
# Outline: as §1
# [7] = tested on: pigweed, palmer; assay: Test C preemergence; assay type: in vivo, Amaranthus palmeri; settings: preemergence, 0 to 100 scale (0 no effect, 100 complete control)
# Outline: as §1
# [8] = tested on: ragweed; assay: Test C preemergence; assay type: in vivo, Ambrosia artemisiifolia; settings: preemergence, 0 to 100 scale (0 no effect, 100 complete control)
# Outline: as §1
# [9] = tested on: ryegrass, Italian; assay: Test C preemergence; assay type: in vivo, Lolium multiflorum; settings: preemergence, 0 to 100 scale (0 no effect, 100 complete control)
# Outline: as §1
# [10] = tested on: soybean; assay: Test C preemergence; assay type: in vivo, Glycine max; settings: preemergence, 0 to 100 scale (0 no effect, 100 complete control)
# Outline: as §1
# [11] = tested on: wheat; assay: Test C preemergence; assay type: in vivo, Triticum aestivum; settings: preemergence, 0 to 100 scale (0 no effect, 100 complete control)
# Outline: as §1
# [12] = tested on: blackgrass; assay: Test C postemergence; assay type: in vivo, Alopecurus myosuroides; settings: postemergence, 10 days
# Outline: as §1
# [13] = tested on: corn; assay: Test C postemergence; assay type: in vivo, Zea mays; settings: postemergence, 10 days
# Outline: as §1
# [14] = tested on: foxtail, giant; assay: Test C postemergence; assay type: in vivo, Setaria faberi; settings: postemergence, 10 days
# Outline: as §1
# [15] = tested on: goosegrass; assay: Test C postemergence; assay type: in vivo, Eleusine indica; settings: postemergence, 10 days
# Text: as §2
# [16] = tested on: kochia; assay: Test C postemergence; assay type: in vivo, Bassia scoparia; settings: postemergence, 10 days
# Outline: as §1
# [17] = tested on: oat, wild; assay: Test C postemergence; assay type: in vivo, Avena fatua; settings: postemergence, 10 days
# Outline: as §1
# [18] = tested on: pigweed, palmer; assay: Test C postemergence; assay type: in vivo, Amaranthus palmeri; settings: postemergence, 10 days
# Outline: as §1
# [19] = tested on: ragweed; assay: Test C postemergence; assay type: in vivo, Ambrosia artemisiifolia; settings: postemergence, 10 days
# Outline: as §1
# [20] = tested on: ryegrass, Italian; assay: Test C postemergence; assay type: in vivo, Lolium multiflorum; settings: postemergence, 10 days
# Outline: as §1
# [21] = tested on: soybean; assay: Test C postemergence; assay type: in vivo, Glycine max; settings: postemergence, 10 days
# Outline: as §1
# [22] = tested on: wheat; assay: Test C postemergence; assay type: in vivo, Triticum aestivum; settings: postemergence, 10 days
# Outline: as §1
# [23] = tested on: galium; assay: Test C postemergence; assay type: in vivo, Galium aparine; settings: postemergence, 10 days
# Outline: as §1
# [24] = tested on: barnyardgrass; assay: Test D flooded paddy test; assay type: in vivo, Echinochloa crus-galli; settings: 250 g ai/ha, applied to paddy water, visual rating after 13 to 14 days, scale 0 to 100 (0 no effect, 100 complete control)
# Outline: (§3)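 Post-flood water application at the 2-leaf stage; 3 cm flood depth kept constant; visual control rating 0–100 after 13–14 days greenhouse growth.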
# [25] = tested on: ducksalad; assay: Test D flooded paddy test; assay type: in vivo, Heteranthera limosa; settings: 250 g ai/ha, applied to paddy water, visual rating after 13 to 14 days, scale 0 to 100 (0 no effect, 100 complete control)
# Outline: as §3
# [26] = tested on: rice; assay: Test D flooded paddy test; assay type: in vivo, Oryza sativa; settings: 250 g ai/ha, applied to paddy water, visual rating after 13 to 14 days, scale 0 to 100 (0 no effect, 100 complete control)
# Outline: as §3
# [27] = tested on: sedge, umbrella; assay: Test D flooded paddy test; assay type: in vivo, Cyperus difformis; settings: 250 g ai/ha, applied to paddy water, visual rating after 13 to 14 days, scale 0 to 100 (0 no effect, 100 complete control)
# Outline: as §3
# [28] = tested on: horseweed; assay: Test C postemergence; assay type: in vivo, Erigeron canadensis; settings: postemergence, 10 days
# Outline: as §1
# [29] = 125 g ai/ha, 0 to 100 scale, 0 no effect, 100 complete control
# [30] = 500 g ai/ha, 0 to 100 scale (0 no effect, 100 complete control)
smiles,measurement,setting,value
Cc1cccc2c1O[C@@H](C)CN2C(=O)c1cccc(-n2cnc(-c3ccccc3)n2)c1 [Compound 283],Blackgrass plant response rating,[1]; 500 g ai/ha,40
same,Blackgrass plant response rating,"[1]; Test C, 125 g ai/ha",40
same,Corn plant response rating,[2]; 500 g ai/ha,0
same,Corn plant response rating,"[2]; Test C, 125 g ai/ha",0
same,"Foxtail, Giant plant response rating",[3]; 500 g ai/ha,90
same,"Foxtail, Giant plant response rating","[3]; Test C, 125 g ai/ha",60
same,Goosegrass plant response rating,[4]; 500 g ai/ha,100
same,Goosegrass plant response rating,"[4]; Test C, 125 g ai/ha",80
same,Kochia plant response rating,[5]; 500 g ai/ha,50
same,Kochia plant response rating,"[5]; Test C, 125 g ai/ha",20
same,"Oat, Wild plant response rating",[6]; 500 g ai/ha,10
same,"Oat, Wild plant response rating","[6]; Test C, 125 g ai/ha",20
same,"Pigweed, Palmer plant response rating",[7]; 500 g ai/ha,100
same,"Pigweed, Palmer plant response rating","[7]; Test C, 125 g ai/ha",30
same,Ragweed plant response rating,[8]; 500 g ai/ha,0
same,Ragweed plant response rating,"[8]; Test C, 125 g ai/ha",0
same,"Ryegrass, Italian plant response rating",[9]; 500 g ai/ha,100
same,"Ryegrass, Italian plant response rating","[9]; Test C, 125 g ai/ha",70
same,Soybean plant response rating,[10]; 500 g ai/ha,30
same,Soybean plant response rating,"[10]; Test C, 125 g ai/ha",0
same,Wheat plant response rating,[11]; 500 g ai/ha,10
same,Wheat plant response rating,"[11]; Test C, 125 g ai/ha",0
same,"Plant response rating, Blackgrass",[12]; [29],10
same,"Plant response rating, Blackgrass",[12]; [30],40
same,"Plant response rating, Corn",[13]; [29],20
same,"Plant response rating, Corn",[13]; [30],20
same,"Plant response rating, Foxtail, Giant",[14]; [29],20
same,"Plant response rating, Foxtail, Giant",[14]; [30],90
same,"Plant response rating, Goosegrass",[15]; [29],10
same,"Plant response rating, Goosegrass",[15]; [30],40
same,"Plant response rating, Kochia",[16]; [29],70
same,"Plant response rating, Kochia",[16]; [30],80
same,"Plant response rating, Oat, Wild",[17]; [29],10
same,"Plant response rating, Oat, Wild",[17]; [30],10
same,"Plant response rating, Pigweed, Palmer",[18]; [29],60
same,"Plant response rating, Pigweed, Palmer",[18]; [30],80
same,"Plant response rating, Ragweed",[19]; [29],10
same,"Plant response rating, Ragweed",[19]; [30],50
same,"Plant response rating, Ryegrass, Italian",[20]; [29],20
same,"Plant response rating, Ryegrass, Italian",[20]; [30],50
same,"Plant response rating, Soybean",[21]; [29],90
same,"Plant response rating, Soybean",[21]; [30],90
same,"Plant response rating, Wheat",[22]; [29],10
same,"Plant response rating, Wheat",[22]; [30],10
same,"Plant response rating, Galium",[23]; [29],50
same,"Plant response rating, Galium",[23]; [30],80
same,"Plant response rating, Barnyardgrass (Flood)",[24],0
same,"Plant response rating, Ducksalad (Flood)",[25],0
same,"Plant response rating, Rice (Flood)",[26],0
same,"Plant response rating, Sedge, Umbrella (Flood)",[27],0
CC1Oc2ccccc2N(C(=O)c2cccc(-n3cncn3)c2)C1C (stereo not shown) [Compound 285],Blackgrass plant response rating,[1]; 500 g ai/ha,0
same,Blackgrass plant response rating,"[1]; Test C, 125 g ai/ha",0
same,Corn plant response rating,[2]; 500 g ai/ha,0
same,Corn plant response rating,"[2]; Test C, 125 g ai/ha",0
same,"Foxtail, Giant plant response rating",[3]; 500 g ai/ha,0
same,"Foxtail, Giant plant response rating","[3]; Test C, 125 g ai/ha",0
same,Goosegrass plant response rating,[4]; 500 g ai/ha,0
same,Goosegrass plant response rating,"[4]; Test C, 125 g ai/ha",0
same,"Oat, Wild plant response rating",[6]; 500 g ai/ha,0
same,"Oat, Wild plant response rating","[6]; Test C, 125 g ai/ha",0
same,"Pigweed, Palmer plant response rating",[7]; 500 g ai/ha,0
same,"Pigweed, Palmer plant response rating","[7]; Test C, 125 g ai/ha",0
same,Ragweed plant response rating,[8]; 500 g ai/ha,0
same,Ragweed plant response rating,"[8]; Test C, 125 g ai/ha",0
same,"Ryegrass, Italian plant response rating",[9]; 500 g ai/ha,30
same,"Ryegrass, Italian plant response rating","[9]; Test C, 125 g ai/ha",20
same,Soybean plant response rating,[10]; 500 g ai/ha,0
same,Soybean plant response rating,"[10]; Test C, 125 g ai/ha",0
same,Wheat plant response rating,[11]; 500 g ai/ha,0
same,Wheat plant response rating,"[11]; Test C, 125 g ai/ha",0
same,pest or weed control at 125 g/ha,"[12]; Alopecurus myosuroides, post-emergence, 240 h, 125 g ai/ha, 0 to 100 scale (0 no effect, 100 complete control), read-out: Plant response rating, Blackgrass",0%
same,pest or weed control at 500 g/ha,"[12]; Alopecurus myosuroides, post-emergence, 240 h, 500 g ai/ha, 0 to 100 scale (0 no effect, 100 complete control), read-out: Plant response rating, Blackgrass",0%
same,"Corn plant response rating (crop injury, 0 = no effect, 100 = complete kill) at 125 g/ha","[13]; Zea mays, post-emergence, 240 h, 125 g ai/ha, 0 to 100 scale (0 no effect, 100 complete control)",0%
same,"Corn plant response rating (crop injury, 0 = no effect, 100 = complete kill) at 500 g/ha","[13]; Zea mays, post-emergence, 240 h, 500 g ai/ha, 0 to 100 scale (0 no effect, 100 complete control)",0%
same,"Plant response rating, Foxtail, Giant",[14]; [29],0
same,"Plant response rating, Foxtail, Giant",[14]; [30],0
same,"Plant response rating, Goosegrass",[15]; [29],0
same,"Plant response rating, Goosegrass",[15]; [30],0
same,"Plant response rating, Kochia",[16]; [29],0
same,"Plant response rating, Kochia",[16]; [30],0
same,"Plant response rating, Oat, Wild",[17]; [29],0
same,"Plant response rating, Oat, Wild",[17]; [30],0
same,"Plant response rating, Pigweed, Palmer",[18]; [29],0
same,"Plant response rating, Pigweed, Palmer",[18]; [30],0
same,"Plant response rating, Ragweed",[19]; [29],0
same,"Plant response rating, Ragweed",[19]; [30],0
same,"Plant response rating, Ryegrass, Italian",[20]; [29],0
same,"Plant response rating, Ryegrass, Italian",[20]; [30],0
same,"Plant response rating, Soybean",[21]; [29],0
same,"Plant response rating, Soybean",[21]; [30],10
same,"Plant response rating, Wheat",[22]; [29],0
same,"Plant response rating, Wheat",[22]; [30],0
same,"Plant response rating, Galium",[23]; [29],0
same,"Plant response rating, Galium",[23]; [30],30
same,"Plant response rating, Horseweed",[28]; [29],0
same,"Plant response rating, Horseweed",[28]; [30],0
same,"Plant response rating, Barnyardgrass (Flood)",[24],0
same,"Plant response rating, Ducksalad (Flood)",[25],0
same,"Plant response rating, Rice (Flood)",[26],0
same,"Plant response rating, Sedge, Umbrella (Flood)",[27],0
